Assay results reported in patent publication US5646173A, “Tricyclic pyrrole derivatives useful as 5-HT selective agents” (Hoffmann-La Roche Inc., priority 1993, dated 1997).
Where a name gives a salt, the structure may show the parent alone. Read-outs that look alike come from different tables or passages of the source.

Legend:
5HT1A receptor = assay: 3H-8-OH-DPAT binding assay (Method I a); conditions: read-out: IC50, test method a
Method: The binding of the compounds of formula I in accordance with the invention to serotonin receptors was determined in vitro by standard methods. The preparations were investigated in accordance with the assays given hereinafter: […]

5HT2C receptor = target: T1, 5HT2C receptor (Sus scrofa, UniProt K7GSR7); assay: 3H-mesulergine binding assay (Method I b)
T1 construct: from tissue
T1 sequence (K7GSR7 1-457): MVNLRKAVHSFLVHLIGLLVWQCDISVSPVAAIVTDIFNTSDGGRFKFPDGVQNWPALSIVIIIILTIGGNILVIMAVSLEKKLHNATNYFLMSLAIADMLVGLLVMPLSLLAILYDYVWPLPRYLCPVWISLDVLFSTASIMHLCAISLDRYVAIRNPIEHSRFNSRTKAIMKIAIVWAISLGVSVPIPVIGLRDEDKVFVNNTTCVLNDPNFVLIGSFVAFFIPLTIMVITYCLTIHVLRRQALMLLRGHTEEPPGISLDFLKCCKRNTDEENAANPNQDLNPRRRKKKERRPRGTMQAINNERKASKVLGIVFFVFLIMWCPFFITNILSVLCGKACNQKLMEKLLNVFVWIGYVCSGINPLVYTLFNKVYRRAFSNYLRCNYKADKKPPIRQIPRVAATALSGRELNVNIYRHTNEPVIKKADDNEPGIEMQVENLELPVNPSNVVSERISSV
Method: (§1) The binding of the compounds of formula I in accordance with the invention to serotonin receptors was determined in vitro by standard methods. The preparations were investigated in accordance with the assays given hereinafter:
b) For the binding to the 5HT2C receptor in accordance with the ^3 H-mesulergine binding assay according to the method of A. Pazos et al., Europ. J. Pharmacol. 106, 539-546 or. D. Hoyer, Receptor Research 8, 59-81 (1988).

5HT2A receptor = target: T2, 5HT2A receptor (Rattus norvegicus, UniProt P14842); assay: biochemical; type: binding
T2 construct: from tissue; host or cells: rat frontal cortex membranes (inferred from the cited method)
Method: as §1
c) For the binding to the 5HT2A receptor in accordance with the ^3 H-ketanserine binding assay according to the method of J. E. Leysen, Molecular Pharmacology 21, 301-304 (1981).

[1] = 5HT2C, 3H-mesulergine, Method I, read-out: IC50, test method b

T2 sequence (P14842 whole entry): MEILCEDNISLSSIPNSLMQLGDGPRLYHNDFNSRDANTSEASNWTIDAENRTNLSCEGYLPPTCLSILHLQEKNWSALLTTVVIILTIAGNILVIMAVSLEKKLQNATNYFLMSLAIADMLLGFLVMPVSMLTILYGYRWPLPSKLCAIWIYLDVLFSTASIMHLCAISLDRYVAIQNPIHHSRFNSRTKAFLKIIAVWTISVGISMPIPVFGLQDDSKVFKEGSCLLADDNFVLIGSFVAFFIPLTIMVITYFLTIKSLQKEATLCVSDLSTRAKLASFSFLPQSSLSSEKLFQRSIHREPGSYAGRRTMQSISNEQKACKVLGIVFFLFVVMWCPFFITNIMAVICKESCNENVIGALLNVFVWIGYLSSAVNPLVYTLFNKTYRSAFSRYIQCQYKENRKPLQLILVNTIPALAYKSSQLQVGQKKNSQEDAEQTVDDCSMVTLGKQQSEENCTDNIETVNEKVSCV

Row | SMILES | IC50 (5HT1A receptor) [µM] | IC50 (5HT2C receptor) [µM] | IC50 (5HT2A receptor) [µM] | IC50 (5HT2C receptor; [1]) [µM] | IC50 (5HT2A receptor; 5HT2A, 3H-ketanserine, Method I, read-out: IC50, test method c) [µM]
1 | CC(N)Cn1ccc2c1-c1cc(Cl)ccc1C2 (racemic) [Example 21, (RS)-2-(7-chloro-1,4-dihydro-indeno[1,2-b]pyrrol-1-yl)-1-methyl-ethylaminefumarate (1:0.5)] | 1.35 | 0.0566 | 2.54 | – | –
2 | COc1ccc2c(c1)-c1c(ccn1CC(C)N)C2 (racemic) [Example 22, (RS)-2-(7-methoxy-1,4-dihydro-indeno[1,2-b]pyrrol-1-yl)-1-methyl-ethylamine fumarate (1:0.5)] | 1.59 | 0.0304 | 1.4 | – | –
3 | CC(N)Cn1ccc2c1-c1ccccc1OC2 (racemic) [Example 34, (RS)-1-(1,4-dihydro-[1]benzopyrano-[4,3-b]pyrrol-1-yl)-1-methyl-ethylaminefumarate (1:0.5)] | 1.62 | – | 2.64 | 0.107 | –
4 | CC(N)Cn1ccc2c1-c1ccc(Cl)cc1C2 (racemic) [Example 53, (RS)-2-(6-chloro-1,4-dihydro-indeno[1,2-b]pyrrol-1-yl)-1-methyl-ethylaminefumarate (1:0.5)] | 1.1 | 0.308 | 11.3 | – | –
5 | COc1ccc2c(c1)Cc1ccn(CC(C)N)c1-2 (racemic) [Example 55, (RS)-2-(6-methoxy-1,4-dihydro-indeno[1,2-b]pyrrol-1-yl)-1-methyl-ethylamine fumarate (1:0.5)] | 1.26 | 0.371 | 8.35 | – | –
6 | CC(N)Cn1ccc2c1-c1ccccc1SC2 (racemic) [Example 64] | 0.384 | – | 0.773 | 0.0854 | –
7 | COc1cccc2c1-c1c(ccn1CC(C)N)C2 (racemic) [Example 67, (RS)-2-(8-methoxy-1,4-dihydro-indeno[1,2-b]pyrrol-1-yl)-1-methyl-ethylamine fumarate (1:0.5)] | 1.75 | 0.146 | 1.07 | – | –
8 | CC(N)Cn1ccc2c1-c1ccccc1C2c1ccccc1 (racemic) [Example 69, (2RS/4RS)-2-(4-phenyl-1,4-dihydro-indeno[1,2-b]pyrrol-1-yl)-1-methyl-ethylamine fumarate (1:0.86)] | 3.46 | 0.143 | 0.854 | – | –
9 | O=c1ccc2[nH]cc(C3=CCNCC3)c2[nH]1 [CP 93129, reference compound] | 1.62 | – | 29.2 | – | –
10 | COc1ccc2ccc3ccn(C[C@H](C)N)c3c2c1 [Example 7, (S)-2-(8-methoxy-1H-benz[g]indol-1-yl)-1-methyl-ethylamine fumarate (1:0.5)] | 2.16 | 0.024 | 1.2 | – | –
11 | COc1ccc2c(c1)-c1c(ccn1CCN)C2 [Example 23, 2-(7-methoxy-1,4-dihydro-indeno[1,2-b]pyrrol-1-yl)-ethylamine fumarate (1:1)] | 0.347 | 0.0452 | 3.34 | – | –
12 | COc1ccc2c(c1)-c1c(ccn1C[C@@H](C)N)C2 [Example 28, (R)-2-(7-methoxy-1,4-dihydro-indeno[1,2-b]pyrrol-1-yl)-1-methyl-ethylaminefumarate (1:0.5)] | 1.07 | 0.0787 | 1.63 | – | –
13 | COc1ccc2c(c1)-c1c(ccn1C[C@@H](C)N)CC2 [Example 30, (R)-2-(4,5-dihydro-8-methoxy-1H-benz[g]indol-1-yl)-1-methyl-ethylamine fumarate (1:1)] | 0.298 | 0.0581 | 0.479 | – | –
14 | COc1ccc2ccc3ccn(C[C@@H](C)N)c3c2c1 [Example 31, (R)-2-(8-methoxy-1H-benz[g]indol-1-yl)-1-methyl-ethylamine fumarate (1:0.5)] | 0.337 | 0.0281 | 0.874 | – | –
15 | COc1ccc2ccc3ccn(CCN)c3c2c1 [Example 32, 2-(8-methoxy-1H-benz[g]indol-1-yl)-ethylamine fumarate (1:1)] | 0.139 | 0.018 | 1.67 | – | –
16 | COc1ccc2c(c1)-c1c(ccn1C(C)(C)N)CO2 [Example 54, (RS)1-(8-methoxy-1,4-dihydro[1]benzopyrano[4,3b]pyrrol1-yl)-1-methyl-ethylamine] | 0.825 | – | – | 0.116 | 2.59
17 | COc1ccc2c(c1)-c1c(ccn1CCN)CC2 [Example 59, 2-(4,5-dihydro-8-methoxy-1H-benz[g]indol-1-yl)-ethylamine fumarate (1:1)] | 0.097 | 0.0238 | 1.51 | – | –
18 | CN1C[C@H](CNC(=O)OCc2ccccc2)C[C@@H]2c3cccc4c3c(cn4C)C[C@H]21 [Metergoline, reference compound] | – | 0.0055 | – | – | –
19 | COc1ccccc1N1CCN(CCCCN2C(=O)c3ccccc3C2=O)CC1 [NAN-190, reference compound] | 0.00056 | 1.8 | 0.581 | – | –
20 | Cc1nc2ccccn2c(=O)c1CCN1CCC(C(=O)c2ccc(F)cc2)CC1 [Pirenperone, reference compound] | 2.88 | 0.037 | 0.0029 | – | –
21 | COc1ccc2[nH]cc(C3=CCNCC3)c2c1 [RU 24969, reference compound] | 0.008 | – | – | – | –
22 | Cc1nc2sccn2c(=O)c1CCN1CCC(=C(c2ccc(F)cc2)c2ccc(F)cc2)CC1 [Ritanserine, reference compound] | – | 0.037 | – | – | –
23 | Clc1cccc(N2CCNCC2)c1 [mCPP, reference compound] | 0.227 | – | 0.319 | 0.053 | –
